Here are results for 11 molecules from patent EP3666770A1, “NOVEL HETEROCYCLIC COMPOUNDS AS CDK8/19 INHIBITORS” (Joint Stock Company "Biocad", priority 2017, dated 2019).

The term microsomal CLint denotes the capacity of the preparation to metabolise the compound, expressed as a volume cleared per time. A high value points to rapid turnover. Broadly, the IC50 is the concentration needed to halve the response being measured. What is called CC50 is the concentration that lowers cell viability or growth by half.

Structures are written as SMILES. Where two headings read alike, the source gives them in different places.

Data set [1] is described as follows: Chemical stability in human blood plasma. As to conditions: pooled human blood plasma; 10 µM; 4 hours at 37°C; substance amount in % after thermostatting. It is filed as in vitro ADME. As to the method: (§1) Chemical stability of the compounds described herein was determined in simulated gastric fluid and human blood plasma.
(§2) Determination of stability in human blood plasma was performed using pooled human blood plasma taken from ten healthy donors. The initial candidate solution (10 mM in DMSO) was diluted with pooled blood plasma to a concentration of […] (test solution). The test solution was incubated in a dry block thermostat for 4 hours at 37°C. HPLC with Agilent 1200 liquid chromatography system (Agilent, USA) was employed to determine peak areas of the compounds in test samples, said peak areas corresponding to the initial test time (prior to incubation) and the final test time (after incubation in a dry block thermostat for 4 hours at 37°C), proteins were preliminarily precipitated with acetonitrile. Chromatographic analysis was performed in a gradient elution regime with a flow rate of 1 mL/min. Substance amount in % in a sample after thermostatting was determined.

A short description of data set [2]: Chemical stability in simulated gastric fluid (SGF). As to conditions: SGF without enzymes, pH=1,4; 10 µm; 2 hours at 37°C; substance amount in % after thermostatting. Type of data set: physicochemical. How it is done: as §1
as §2, with “SGF concentrate without enzymes, pH=1,4 (Sigma Ireland, cat#01651)” for “Determination of stability in human blood plasma”, “used as simulated gastric fluid. Initial” for “performed using pooled human blood plasma taken from ten healthy donors. The initial”, “an SGF working solution” for “pooled blood plasma”, “2” for “4”, “37°C).” for “37°C), proteins were preliminarily precipitated with acetonitrile.”

Data set [3] is described as follows: Enzyme stability in human liver microsomes. It is filed as in vitro ADME. As to conditions: pH 7.4; 0,5 mg/mL pooled human liver microsomes; 10 µM compound; 37°C; pH=7,4. How it is done: Measuring of candidates' enzyme stability enabled estimation of the stability of the present compounds towards the action of enzymes in liver microsomes.
Enzyme degradation rate was measured by incubating the reaction mixture in a dry block thermostat at 37°C, said reaction mixture comprising 0,5 mg/mL of pooled human liver microsomes (XenoTech, USA, cat#H2620), 10 µM compound, 2 mM β-nicotinamide adenine dinucleotide (Carbosynth, UK, cat#NN10871) and 4 mM magnesium chloride in 0,1 M sodium-phosphate buffer, pH=7,4. The reaction was quenched with acetonitrile (100 µL of acetonitrile / 100 µL of the reaction mixture). After quenching, the samples were centrifuged at 10000 rpm for 10 minutes. Supernatant fluid was tested by chromatographic technique using Agilent1200 (Agilent, USA). Chromatographic analysis was performed in a gradient elution regime with a flow rate of 1 mL/min. A graph of the logarithm of substance's peak area as a function of time was made. The dependent factor of the line corresponded to the elimination rate constant K based on which the drug's half-life t1/2 and degradation rate CLint were calculated: Elimination rate constant (k) = (−gradient) [formula] [formula] V(μL/mg) = (volume of incubation(μL))/(protein in the incubation(mg)) [formula] [formula]

A further data set has as its system MV4-11. As to the kind of experiment: Cell-based antiproliferative test (AlamarBlue), MV4-11. As to conditions: Homo sapiens, MV4-11, 120 h, read-out: MV-4-11 IC50, mkM. As to the method:
Antiproliferative activity of CDK8 inhibitors according to the present invention was measured in a cell-based test on continuous cell cultures MV4-11 (biphenotypic myelomonocytic leukemia, ATCC® CRL-9591™), KG-1 (acute myeloid leukemia, ATCC® CCL-246™), HL-60 (acute promyelocytic leukemia, ATCC® CCL-240™) using a vital stain AlamarBlue (ThermoFisher, #DAL1100). The cells were grown in RPMI-1640 (PanEco, #C330p) medium with addition of 10% FBS (Gibco, #16140-071); washed and resuspended in culture medium with 10% FBS (Gibco, #16140-071) in 96-well culture plates (Corning, #3599) with ≈ 10 ×10^3 cells in […] of medium per well. The compounds in question were dissolved in DMSO and diluted with a medium with 10% FBS (Gibco, #16140-071) to a final concentration ranging form 0 to 100 µM. […] of diluted compounds were then added to each well (final DMSO concentration was less than 1%) and incubated under 5% CO2 atmosphere at 37°C for 120 h. After incubating, 15 µL of AlamarBlue (ThermoFisher, #DAL1100) reagent was added per well, contents of plates were mixed in an orbital shaker (Biosan, Latvia) and further incubated for 3-5 h at 37°C under 5% CO2 atmosphere. Number of living cells was estimated using a microplate spectrophotometer (Tecan Infinite M200Pro, Switzerland) measuring fluorescent signal at the excitation wavelength (λEx) of 540 nm and emission wavelength (λEm) of 590 nm.
IC50 was calculated using Magellan 7.2 software (Tecan, Switzerland) approximating experimental points by four-parameter logistic model with the optimization by Levenberg-Marquardt (table 7, table 7).
Background: Resazurin is reduced to fluorescent resorufin, in cell work by metabolically active cells.

Data set [4] can be described thus: General cytotoxicity test on HepG2 cells. Type of data set: cell-based. As to conditions: human, HepG2 cells; 72 h incubation; 200 to 0.78 µM; average values of several tests; read-out: Hep-G2 CC50, mkM. As to the method:
Cell viability was assessed using the above method. Table 6. […] The results are presented as average values of activity obtained in several tests.

[5] abbreviates: 120 h incubation, average values of several tests.

Take `COc1cc(-c2cnc3[nH]cc(C(=O)c4cccnc4)c3c2)ccc1N(C)C` [CDK8-4-25, (5-(4-(Dimethylamino)-3-methoxyphenyl)-1H-pyrrolo[2,3-b]pyridin-3-yl)(pyridin-3-yl)methanone]: the “Stability in blood plasma, %” value in data set [1] is reported as 100%. Further, in data set [2], the “Stability in SGF, %” value is given as 100%. The microsomal CLint at 10 µM in data set [3] was 22.2 µL/min/mg. In addition, the IC50 with MV4-11 (setting [5]) was determined as 0.05 µM. In data set [4], the CC50 at 72 h came to 4.7 µM.

As for `O=C(c1ccnc2ccc(-c3ccc(-c4cn[nH]c4)cc3)cc12)N1CCCCC1` [CDK8-5-4, (6-(4-(1H-Pyrazol-4-yl)phenyl)quinolin-4-yl) (piperidin-1-yl)methanone], the “Stability in blood plasma, %” value in data set [1] turned out to be 100%. For the same molecule, the “Stability in SGF, %” value in data set [2] is on record as 99.9%. Moreover, in data set [3], the microsomal CLint at 10 µM worked out at 37 µL/min/mg. The IC50 in the data set with MV4-11 (setting [5]) was determined as 9.56 µM. In addition, the CC50 at 72 h in data set [4] was 66.1 µM.

As for `Cn1cc(-c2ccc(-c3cncc4ncc(C(=O)N5CC[C@@H](O)C5)cc34)cc2)cn1` [CDK8-3-4, (R)-(3-Hydroxypyrrolidin-1-yl) (5-(4-(1-methyl-1H-pyrazol-4-yl)phenyl)-1,7-naphthyridin-3-yl)methanone], in data set [1], the “Stability in blood plasma, %” value is 100%. The “Stability in SGF, %” value in data set [2] was 100%. Moreover, in the data set on MV4-11 (setting [5]), the IC50 amounted to 7.51 µM. Also, the CC50 at 72 h in data set [4] stood at 76.4 µM.

Turning to `Cn1cc(-c2ccc(-c3cncc4ncc(C(=O)N5CCC[C@@H](O)C5)cc34)cc2)cn1` [CDK8-3-20, (R)-3-(Hydroxypiperidin-1-yl)(5-(4-(1-methyl-1H-pyrazol-4-yl)phenyl)-1,7-naphthyridin-3-yl)methanone], the IC50 with MV4-11 was 5.04 µM.

Turning to `Cn1cc(-c2ccc(-c3cncc4ncc(C(=O)N5CCOCC5)cc34)cc2)cn1` [CDK8-3-33, (5-(4-(1-Methyl-1H-pyrazol-4-yl)phenyl)-1,7-naphthyridin-3-yl)(morpholino)methanone], in the data set on MV4-11 (setting [5]), the IC50 turned out to be 2.06 µM. Further, the 50% cytotoxic concentration (CC50) at 72 h in data set [4] was 100 µM.

`COCCOC(=O)c1cnc2cncc(-c3ccc(-c4cnn(C)c4)cc3)c2c1` [CDK8_3_28, 2-Methoxyethyl-5-[4-(methyl-1-H-pyrazol-4-yl)phenyl]-1,7-naphthyridine-3-carboxylate]: the IC50 in the data set with MV4-11 (setting [5]) worked out at 0.871 µM. The CC50 at 72 h in data set [4] was 48.4 µM.

For `COCCNC(=O)c1cnc2cncc(-c3ccc(-n4ccnc4)cc3)c2c1` [CDK8-3-41], the IC50 in the data set on MV4-11 (setting [5]) came out at 0.572 µM. Further, in data set [4], the CC50 at 72 h turned out to be 200 µM.

For the molecule `CN(C)CCN(C)C(=O)c1cnc2cncc(-c3ccc(-c4cnn(C)c4)cc3)c2c1` [CDK8-3-35, N-(2-(Dimethylamino)ethyl)-N-methyl-5-(4-(1-methyl-1H-pyrazol-4-yl)phenyl)-1,7-naphthyridine-3-carboxamide], the IC50 in the data set with MV4-11 (setting [5]) was 1.84 µM. For the same molecule, the CC50 at 72 h in data set [4] came out at 77.4 µM.

With `CN1CCN(Cc2ccc(-c3ccnc4ccc(N5CCC(C)(C(N)=O)CC5)cc34)cc2)CC1` [CDK8-6-3, 4-Methyl-1-(4-(4-((4-methylpiperazin-1-yl)methyl)phenyl)quinolin-6-yl) piperidine-4-carboxamide], the “Stability in SGF, %” value in data set [2] was 100%. This molecule returned a microsomal CLint at 10 µM in data set [3] of 18.6 µL/min/mg. In addition, the IC50 in the data set with MV4-11 (setting [5]) was 3.18 µM. Also, in data set [4], the CC50 at 72 h was more than 60 µM.

As for `COC(=O)c1ccc(-n2cnc3c(F)cc(N4CC(C(=O)Nc5ccccc5)C4)cc32)cc1` [CDK8-1-7E, Methyl 4-(6-(3-(phenylcarbamoyl)azetidin-1-yl)-4-fluoro-1H-benzo[d]imidazol-1-yl)benzoate], the IC50 in the data set with MV4-11 (setting [5]) was more than 2.5 µM. Besides, the CC50 at 72 h in data set [4] was more than 100 µM.

For `CN1CCN(C(=O)c2cnc3cncc(-c4ccc(-c5cnn(C)c5)cc4)c3c2)CC1` [CDK8-3-30, (4-Methylpiperazin-1-yl)(5-(4-(1-methyl-1H-pyrazol-4-yl)phenyl)-1,7-naphthyridin-3-yl)methanone], the IC50 with MV4-11 (setting [5]) was determined as 0.412 µM. In addition, the 50% cytotoxic concentration (CC50) at 72 h in data set [4] came to 100 µM.
